Experimental data published in patent US20260248767A1, “METHODS FOR INDUCING FERROPTOSIS IN CANCER” (Board of Regents, The University of Texas System, priority 2023, published 2026).

System: HT-1080, 786-O, U87, T98G, RCC4, H1299, A549, Hela and Hs578T
Assay: Cell death assay (PI flow cytometry), panel of cancer cell lines
Assay type: cell-based, human
Protocol: All cell lines used in this study were free of mycoplasma contamination (per testing done by the vendor). All the cells were cultured in a 37° C. incubator in a 5% CO2 atmosphere. H1299 cells were cultured in RPMI-1640 medium supplemented with 10% fetal bovine serum and 10,000 U/mL penicillin-streptomycin. HT-1080, 786-O, U87, T98G, RCC4, A549, Hela and Hs578T cells were cultured in Dulbecco modified Eagle medium (DMEM) supplemented with 10% fetal bovine serum and 10,000 U/mL of penicillin-streptomycin.
After treatment, cells were trypsinized and collected. […] All experiments were performed in triplicates.

Compound: O=S([O-])[O-].[Na+].[Na+] [sulfite, sodium sulfite]
- ferroptosis (cell death) in combination with RSL3 (RSL3 0.2-2.0 μm plus sulfite 0.5-2 mM depending on cell line): induced statistically significant ferroptosis
- induction of ferroptosis (cell death) (sulfite alone, 0.5-2 mM depending on cell line): did not show induction of ferroptosis
